Assay results from patent US20220242846A1, “ISOINDOLINONE COMPOUNDS” (Monte Rosa Therapeutics AG, priority 2019, published 2022).

Key:
[1] = molecular target: T1, Full length wild-type cereblon CRBN (Homo sapiens, UniProt Q96SW2); assay: Fluorescence polarization (FP) assay indicating cereblon binding; conditions: CRBN 80.0 nM, fluorescent probe 5 nM, FP measured after 12 hours; read-out: rFP IC50
T1 construct: Full length wild-type cereblon CRBN (80.0 nM, 10 μL) was incubated in assay buffer
How it was run: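 Full-length wild-type human CRBN (80.0 nM) preincubated 30 min at room temperature with compound (12-point curve, 300-0.937 or 3000-9.3 nM) in HEPES pH 8.0, NaCl, TCEP, Tween 20. Thalidomide-based Cy5-type probe then added at 5 nM final; FP read after 12 h (ex 590, em 675 nm), normalized to DMSO, IC50 derived.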

[2] = molecular target: T2, CK1alpha (Homo sapiens, UniProt P48729); assay: Selectivity determination by Western Blot assay in MM1S cells: CK1alpha; format: cell-based; design: key: A represents a no degradation observed at 30 μM; B represents trace degradation at 30 μM (below 20%); C represents weak degradation at 30 μM (below 50%); D represents degradation at 30 μM (>90%); E represents degradation at 3 μM (>90%); F represents degradation at 0.3 μM (>90%); conditions: MM1S cells, 0.3, 3 and 30 μM, 6 hours
T2 construct: MM1S cells were purchased from ATCC (cat. Number CRL-2974); endogenous in cells; host or cells: MM1S (ATCC CRL-2974)
T2 sequence (Q96SW2 whole entry partner): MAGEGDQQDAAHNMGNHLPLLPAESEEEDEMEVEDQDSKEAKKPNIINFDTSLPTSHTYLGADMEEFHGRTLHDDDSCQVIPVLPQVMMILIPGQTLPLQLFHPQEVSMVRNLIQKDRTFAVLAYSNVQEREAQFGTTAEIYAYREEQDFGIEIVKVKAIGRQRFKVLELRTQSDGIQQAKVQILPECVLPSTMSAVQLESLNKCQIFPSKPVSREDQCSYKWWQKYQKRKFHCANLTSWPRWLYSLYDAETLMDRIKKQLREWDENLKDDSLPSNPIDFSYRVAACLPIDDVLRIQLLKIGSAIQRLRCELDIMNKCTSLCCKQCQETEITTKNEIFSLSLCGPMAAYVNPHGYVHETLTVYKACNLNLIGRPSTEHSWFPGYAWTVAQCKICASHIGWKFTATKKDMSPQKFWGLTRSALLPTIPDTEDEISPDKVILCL
T2 sequence (Q16531 2-1140 partner limits assumed): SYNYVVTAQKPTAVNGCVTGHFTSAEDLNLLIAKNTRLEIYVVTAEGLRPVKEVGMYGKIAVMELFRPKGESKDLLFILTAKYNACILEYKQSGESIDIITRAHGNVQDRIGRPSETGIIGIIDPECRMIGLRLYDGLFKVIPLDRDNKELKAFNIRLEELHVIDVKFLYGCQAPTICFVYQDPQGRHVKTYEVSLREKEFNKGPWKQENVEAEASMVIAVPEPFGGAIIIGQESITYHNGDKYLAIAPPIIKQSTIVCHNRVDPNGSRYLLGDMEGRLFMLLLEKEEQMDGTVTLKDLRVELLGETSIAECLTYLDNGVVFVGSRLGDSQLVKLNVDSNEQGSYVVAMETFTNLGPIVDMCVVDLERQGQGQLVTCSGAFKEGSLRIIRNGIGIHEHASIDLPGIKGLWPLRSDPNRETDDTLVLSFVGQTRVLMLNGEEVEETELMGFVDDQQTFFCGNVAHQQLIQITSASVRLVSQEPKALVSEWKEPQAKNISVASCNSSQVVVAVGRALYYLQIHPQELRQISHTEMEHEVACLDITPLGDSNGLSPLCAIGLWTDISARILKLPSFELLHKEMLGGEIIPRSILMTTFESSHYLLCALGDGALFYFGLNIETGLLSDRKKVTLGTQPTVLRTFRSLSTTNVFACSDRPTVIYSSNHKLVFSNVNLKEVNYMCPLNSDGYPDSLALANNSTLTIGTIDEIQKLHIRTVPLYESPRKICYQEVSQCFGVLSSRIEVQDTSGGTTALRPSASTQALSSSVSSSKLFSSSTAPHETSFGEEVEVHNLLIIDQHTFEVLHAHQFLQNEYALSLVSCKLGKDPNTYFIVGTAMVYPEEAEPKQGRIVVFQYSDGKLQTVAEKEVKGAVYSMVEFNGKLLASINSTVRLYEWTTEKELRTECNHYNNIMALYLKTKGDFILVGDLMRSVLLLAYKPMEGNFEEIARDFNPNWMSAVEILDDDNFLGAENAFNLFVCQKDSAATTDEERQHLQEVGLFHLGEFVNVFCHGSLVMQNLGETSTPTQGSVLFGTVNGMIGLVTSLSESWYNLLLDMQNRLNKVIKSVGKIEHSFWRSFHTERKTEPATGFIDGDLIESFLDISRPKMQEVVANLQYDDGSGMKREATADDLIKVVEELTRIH
T2 sequence (P48729 whole entry): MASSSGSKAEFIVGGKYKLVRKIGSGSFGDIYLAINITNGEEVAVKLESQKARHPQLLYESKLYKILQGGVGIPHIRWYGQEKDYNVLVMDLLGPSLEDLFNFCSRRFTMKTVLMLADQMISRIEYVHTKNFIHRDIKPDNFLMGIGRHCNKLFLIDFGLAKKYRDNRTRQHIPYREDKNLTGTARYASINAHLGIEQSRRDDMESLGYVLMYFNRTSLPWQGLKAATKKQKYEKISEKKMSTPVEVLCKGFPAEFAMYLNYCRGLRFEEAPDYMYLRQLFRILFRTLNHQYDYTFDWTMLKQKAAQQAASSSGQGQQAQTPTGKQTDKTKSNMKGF
Description: (§1) CK1alpha/Ikaros/Aiolos/ZFP91 Selectivity determination by Western Blot Assay
(§2) MM1S cells were purchased from ATCC (cat. Number CRL-2974), sub-cultured in 90% RPMI 1640 with 10% FBS, supplemented with 1× P/S and incubated at 37° C., 5% CO2. Compounds were stored as 10 mM DMSO stock. For the assay, MM1S cells (3 million cells/well) were plated in 6-well plates and incubated over night. Cells were treated with respective compounds using a serial dilution: 0.3 μM, 3 μM and 30 μM as well as a vehicle only (DMSO) control for 6 hours. Media with suspension cells was subsequently transferred to 15 mL conical tubes, wells rinsed twice with ice-cold PBS and merged with cell suspension in respective 15 mL conical tube. Cells were spinned down, supernatant aspirated, pellets resuspended in ice-cold PBS and transferred to microtubes. Cells were spinned down, supernatant aspirated and pellets resuspended in 120 μL RIPA lysis buffer supplemented with protease and phosphatase inhibitors. Cell lysates were incubated on ice for 20 minutes followed by centrifugation at >20,000×g for 5 mM. Supernatants were transferred to fresh microtubes and stored at −80° C. Total protein concentration was determined using a BCA assay with a BSA standard curve and concentration of all samples was adjusted to 1 mg/mL. 25 μL 4× LDS sample buffer supplemented with 100 mM DTT was added to 75 μL sample. Samples were centrifuged (8,000×g, 1 min) and incubated at 95° C. for […] followed by another centrifugation step (8,000×g, 1 mM). 20 μL of each sample was loaded on a 4-12% gel alongside a protein molecular weight marker. Gels were run in the presence of MOPS buffer at 80 Volts for […], followed by 120 Volts for 1.5 h and proteins subsequently transferred onto nitrocellulose membranes at 20 Volts for 7 mM using an iBlot2 Gel Transfer Device. Membranes were then cut horizontally into two pieces, covering 80-50 kDa and 50-25 kDa. Blocking the membranes was performed by gently shaking in 5% (w/v) skim milk in TSB-T for 1 hr at room temperature. All primary antibodies were used at a 1/1000 in 5% (w/v) BSA dissolved in TBST and incubated with membranes over night at 4° C. After three washes with 1× TBST for 5 mM, HRP-coupled secondary antibodies diluted in 5% (w/v) BSA/TBST (Goat Anti-Rb IgG, dil. 1/10,000; Goat Anti-Mouse IgG, dil. 1/5000) were added for 1 hr at room temperature. After three washes with 1× TBST (5 minutes each), membranes were incubated with ECL reagent for 1 mM at room temperature. Chemiluminescence signals were then detected using a LAS-4000 system with default settings and signals quantified using Image Studio Lite software (version 5.2). Membrane parts previously incubated with antibody against CK1alpha were stripped off antibodies by incubating with stripping buffer for 30 minutes followed by three washed with TBST (5 mM each), blocking with 5% (w/v) skim milk for 1 hr, and incubation with primary antibody against GAPDH overnight at 4° C. Subsequent washes, incubation with secondary antibody and signal acquisition were performed as described above.
(§3) Table 5 assigns each compound a code indicating the ability for the degradation of IKZF1, IKZF3, CK1alpha and ZFP91: A, B, C, D, E or F. According to the code, A represents a no degradation observed at 30 μM, B represents trace degradation at 30 μM (below 20%), C represents weak degradation at 30 μM (below 50%), D represents degradation at 30 μM (>90%), E represents degradation at 3 μM (>90%) and F represents degradation at 0.3 μM (>90%).

[3] = molecular target: T3, IKZF1 (Homo sapiens, UniProt Q13422); assay: Selectivity determination by Western Blot assay in MM1S cells: IKZF1; format: cell-based; design: key: A represents a no degradation observed at 30 μM; B represents trace degradation at 30 μM (below 20%); C represents weak degradation at 30 μM (below 50%); D represents degradation at 30 μM (>90%); E represents degradation at 3 μM (>90%); F represents degradation at 0.3 μM (>90%); conditions: MM1S cells, 0.3, 3 and 30 μM, 6 hours
T3 construct: MM1S cells were purchased from ATCC (cat. Number CRL-2974); endogenous in cells; host or cells: MM1S (ATCC CRL-2974)
T3 sequence (Q96SW2 whole entry partner): as the sequence (Q96SW2 whole entry partner) above
T3 sequence (Q16531 2-1140 partner limits assumed): as the sequence (Q16531 2-1140 partner limits assumed) above
T3 sequence (Q13422 whole entry): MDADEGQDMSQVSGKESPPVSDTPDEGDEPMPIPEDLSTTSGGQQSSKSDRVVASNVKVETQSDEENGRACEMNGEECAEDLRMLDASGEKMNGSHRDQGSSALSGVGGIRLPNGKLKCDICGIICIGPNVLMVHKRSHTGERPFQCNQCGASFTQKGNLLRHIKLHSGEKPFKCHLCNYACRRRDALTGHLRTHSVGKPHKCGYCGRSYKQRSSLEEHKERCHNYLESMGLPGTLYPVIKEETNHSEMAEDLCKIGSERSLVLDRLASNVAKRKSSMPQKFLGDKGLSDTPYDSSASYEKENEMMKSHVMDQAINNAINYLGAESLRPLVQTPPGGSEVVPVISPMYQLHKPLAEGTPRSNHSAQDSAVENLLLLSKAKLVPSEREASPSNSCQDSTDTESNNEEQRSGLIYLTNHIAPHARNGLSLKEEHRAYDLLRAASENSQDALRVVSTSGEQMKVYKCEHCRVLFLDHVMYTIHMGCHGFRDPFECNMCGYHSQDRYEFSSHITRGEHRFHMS
Description: as §1, §2, §3

T1 sequence (Q96SW2 whole entry): as the sequence (Q96SW2 whole entry partner) above

IC50 [1] [nM]	CK1alpha degradation code [2]	IKZF1 degradation code [3]	Structure (SMILES)
468	A	A	Cc1ccc(NC(=O)NCc2ccc3c(c2)C(=O)N(C2CCC(=O)NC2=O)C3)cc1Cl (stereo not drawn) [Compound 8]
284	A	A	Cc1c(Cl)cc(NC(=O)NCc2ccc3c(c2)C(=O)N(C2CCC(=O)NC2=O)C3)cc1CN(C)C (stereo not drawn) [Compound 75]
278	A	A	Cc1ccc(NC(=O)NCc2ccc3c(c2)C(=O)N(C2CCC(=O)NC2=O)C3)c(Cl)c1Cl (stereo not drawn) [Compound 87]
372	A	A	Cc1c(Cl)cc(NC(=O)NCc2ccc3c(c2)C(=O)N(C2CCC(=O)NC2=O)C3)cc1CN1CCOCC1 (stereo not drawn) [Compound 82]

Structure (SMILES)	IC50 [1] [nM]	CK1alpha degradation code [2]	IKZF1 degradation code [3]
O=C1CCC(N2Cc3ccc(CNC(=O)Nc4cccc(CN5CCOCC5)c4)cc3C2=O)C(=O)N1 (stereo not drawn) [Compound 105]	295	A	B (B represents trace degradation at 30 μM (below 20%))
Cc1cc(C)c(NC(=O)NCc2ccc3c(c2)C(=O)N(C2CCC(=O)NC2=O)C3)cc1Cl (stereo not drawn) [Compound 85]	214	B (B represents trace degradation at 30 μM (below 20%))	A
Cc1c(Cl)cc(NC(=O)NCc2ccc3c(c2)C(=O)N(C2CCC(=O)NC2=O)C3)cc1CC1COCOC1 (stereo not drawn) [Compound 132]	381	C (C represents weak degradation at 30 μM (below 50%))	A
